Reference: patent US20200230205A1, “COMPOSITIONS AND METHODS FOR TREATING MYELIN DISORDERS” (CASE WESTERN RESERVE UNIVERSITY, priority 2017, published 2020)

Columns and labels:
MMP-2 = MMP-2 in OPC conditioned media or lysate (gelatin zymography, western blot); format: cell-based, mouse
Protocol: To assess MMP-2 or 10 in OPC CM or lysates, OPCs were incubated on precoated PLL, aggrecan, and laminin as described above. OPCs were treated with vehicle, 2.5 μM ISP or SISP for 2 days at 37° C. CM was then harvested and concentrated using Milipore Ultracel YM-C centrifugal filter units at max speed (Eppendorf Centrifuge 5415D) for 30 minutes at 4° C. […] of concentrated CM was loaded into each lane. OPC lysates were assessed using western blot techniques described below with […] protein loaded from each group.
Tissue samples or cerebellar slices or purified OPC cells were homogenized with RIPA lysis buffer and protein concentration was determined by Pierce BCA protein assay kit according to the manufacture instruction (Thermo Fisher). Then, equal amounts of protein were loaded to 15% SDS-PAGE gels, and electrophoretically transferred to PVDF membranes (Millipore). The membranes were blocked in 0.1% TPBS buffer with 5% non-fat milk for 1h at room temperature and probed with indicated primary antibodies overnight at 4° C. and followed by secondary antibody conjugated to horseradish peroxidase (HRP). The following primary antibodies were used: MBP (SMI-99P, Covance, 1:1000), CS-56 (C8035, Sigma, 1:1000), Laminin (L9393, Sigma, 1:1000), GAPDH (AF5718, R and D Systems, 1:1000), MMP-2 (AF1488, R and D Systems, 1:1000), MMP-10 (MAB910, R and D Systems, 1:1000), and […] (sc-47778, Santa Cruz, 1:1000). Enhanced chemiluminescence was performed with a West Pico Kit (Thermo Fisher) and detected by FluorChem E system (ProteinSimple, USA). The density of bands was quantified using ImageJ software (NIH).
CM was collected from 1×10^6 OPCs incubated on PLL, 1 μg/mL laminin, and 2 μg/mL aggrecan coated 6-well plates. OPCs were treated with vehicle, 2.5 μM ISP or SISP for 2 days at 37° C. […] Following washes with destaining buffer (40% MeOH, 10% Acetic Acid), Zymograms were imaged and the amount of gelatin degradation was assessed using ImageJ in a method described in the western blot section.

OPC secreted proteases = assay: Protease array screen of OPC conditioned media; format: cell-based, mouse; conditions: OPC CM, 2.5 μM ISP for 4 div vs vehicle
Protocol: OPCs were cultured on 6-well plates for 4 div with vehicle control or 2.5 μM ISP treatment. Conditioned media was collected from each group and cell-strained before incubation with blot array provided in R & D Systems Protease Array Kit (ARY025). Instructions from kit were followed with overnight incubation of collected media at 4° C. Control and ISP blots were developed together with the same exposure time and pixel intensities of array was assess using ImageJ (NIH).

In the case of “GRKKRRQRRRCDMAEHMERLKANDSLKLSQEYESI [ISP]”, the “MMP-2 gelatin-degrading activity, zymography” value (MMP-2; OPC CM, 2.5 μM ISP vs controls) was “significantly increased”, the “MMP-2 expression in OPC lysates normalized over GAPDH” value (MMP-2; OPC lysates, ISP) was “decrease in MMP-2 expression” and the “MMP-2 in OPC CM, western blot” value (MMP-2; concentrated OPC CM, 2.5 μM ISP) was “clearly enhanced”. The “protease array signal for ADAMTS, Kallikreins, Cathepsins, MMPs” value (OPC secreted proteases) was “increased signal” and the “protease array signal for Cathepsins L and V and MMP-10 (laminin degrading)” value (OPC secreted proteases) was “reduced”.
